Structures can show the parent of a compound that is named as a salt.
What was measured:
Assay type in all cases: cell-based
[1] = test system: DU145 (prostate cancer); test: Induction of cell (programmed) death in DU145 cells; details: DU145 (prostate cancer) cell line
[2] = test system: MDA-MB-435 (breast cancer); test: Induction of cell (programmed) death in MDA-MB-435 cells; details: MDA-MB-435 (breast cancer) cell line
[3] = test system: DF15 (multiple myeloma); test: Induction of cell (programmed) death in DF15 cells; details: DF15 (multiple myeloma) cell line
[4] = test system: MCF-7 (breast cancer); test: Induction of cell (programmed) death in MCF-7 cells; details: MCF-7 (breast cancer) cell line
[5] = test system: ANB6 (multiple myeloma); test: Induction of cell (programmed) death in ANB6 cells; details: ANB6 (multiple myeloma) cell line
[6] = test system: A357 (lung cancer); test: Induction of cell (programmed) death in A357 cells; details: A357 (lung cancer) cell line
[7] = test system: U266 (multiple myeloma); test: Induction of cell (programmed) death in U266 cells; details: U266 (multiple myeloma) cell line
[8] = test system: HL-60 (leukemia); test: Induction of cell (programmed) death in HL-60 cells; details: HL-60 (leukemia) cell line
[9] = test system: NCIH1703 (non-small cell lung adenocarcinoma); test: Induction of cell (programmed) death in NCIH1703 cells; details: NCIH1703 (non-small cell lung adenocarcinoma) cell line
[10] = test system: MDA-435 human breast cancer cells; test: In vitro apoptosis assay, Annexin V-FITC and PI staining by flow cytometry; details: MDA-435 cells
Method: MDA-435 human breast cancer cells were treated with either vehicle or varying doses of the compound of EXAMPLE 1. Cells were harvested and stained with Annexin V-FITC and PI by Flow Cytometry using ApoAlert Annexin V-FITC apoptosis kit (Clonetech, BD). The percentage of apoptotic cells were determined using EPICS® XL™ and XL-MCL, System II™ Software, version 1.0 (1996).

[11] = test system: MDA-MB-231 (breast cancer); test: Induction of cell (programmed) death in MDA-MB-231 cells; details: MDA-MB-231 (breast cancer) cell line
[12] = test system: H929 (multiple myeloma); test: Induction of cell (programmed) death in H929 cells; details: H929 (multiple myeloma) cell line
[13] = test system: MDA-435 human breast cancer cells; test: In vitro cell cycle assay (G1 arrest), propidium iodide DNA content by flow cytometry; details: MDA-435 cells synchronized by serum deprivation for 24 hours, released with 10% serum; vehicle 28%
Method: Tumor cells were synchronized by serum deprivation for 24 hours, then released by adding 10% serum to the cell culture with either the compound of EXAMPLE 1 ((4-{[3-(2,2-Dimethyl-tetrahydro-pyran-4-yl)-4-phenyl-butylamino]-methyl}-phenyl)-dimethyl-amine) (obtained from ChemBridge Corporation; single peak via HPLC: 20–100% gradient: acetonitrile/water/1% trifluoroacetic acid) or vehicle (dimethylsofloxide). Cells were harvested and stained in 0.04% digitonin working solution with […] propidium iodide. DNA content was analyzed by Flow Cytometry (Coulter). The population of cells in each phase was determined using Expo 32-ADC Software for Coulter EPICS® XL™ Cytometers, version 1.1 B (2001).

[14] = test system: MM1s (multiple myeloma); test: Induction of cell (programmed) death in MM1s cells; details: MM1s (multiple myeloma) cell line
[15] = test system: A172 (malignant glioma); test: Induction of cell (programmed) death in A172 cells; details: A172 (malignant glioma) cell line
[16] = test system: Hela (cervix adenocarcinoma); test: Induction of cell (programmed) death in Hela cells; details: Hela (cervix adenocarcinoma) cell line

CN(C)c1ccc(CNCCC(Cc2ccccc2)C2CCOC(C)(C)C2)cc1 (centres unmarked) [EXAMPLE 1, (4-({[3-(2′,2′-dimethyltetrahydropyran-4′-yl)-4-phenylbutylamino]-methyl}-phenyl)-dimethylaminedihydrochloride]
induction of cell (programmed) death [1]: induce cell (programmed) death | induction of cell (programmed) death [2]: induce cell (programmed) death | induction of cell (programmed) death [3]: induce cell (programmed) death | induction of cell (programmed) death [4]: induce cell (programmed) death | induction of cell (programmed) death [5]: induce cell (programmed) death | induction of cell (programmed) death [6]: induce cell (programmed) death | induction of cell (programmed) death [7]: induce cell (programmed) death | induction of cell (programmed) death [8]: induce cell (programmed) death | induction of cell (programmed) death [9]: induce cell (programmed) death | cell population with increased intensity of Annexin V-FITC staining ([10]; varying doses, dose-dependent increase): up to 30% | PI staining of treated cells ([10]; PI stains cells in a late stage of apoptosis): increase in PI staining | induction of cell (programmed) death [11]: induce cell (programmed) death | induction of cell (programmed) death [12]: induce cell (programmed) death | G0/G1 to S phase transition blockage [13]: 38% | induction of cell (programmed) death [14]: induce cell (programmed) death | induction of cell (programmed) death [15]: induce cell (programmed) death | induction of cell (programmed) death [16]: induce cell (programmed) death

Reference: patent US7037936B2, “Compounds useful for the treatment of cancer, compositions thereof and methods therewith” (Signal Pharmaceuticals, LLC., priority 2002, dated 2006)
